Reference: PubChem BioAssay (NCI)
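Where inhibition never reached the appropriate level, the endpoint shown equals the highest concentration tested. Otherwise, values were interpolated linearly from a five-concentration, 48-hour dose response in 96-well plates. The concentration for 50% growth inhibition is given as GI50. TGI: concentration producing complete growth inhibition.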

Legend:
Assay in all cases: NCI anticancer screen, dose series, 48 h; in the data active = GI50 below about 0.43 µM; inactive = the rest
U251 CNS = test system: U251 CNS
SNB-19 CNS = test system: SNB-19 CNS
SW-620 colon = test system: SW-620 colon
A549 NSCLC = test system: A549 NSCLC
NCI-H460 lung = test system: NCI-H460 lung
CAKI-1 renal = test system: CAKI-1 renal
NCI-H522 lung = test system: NCI-H522 lung
UO-31 renal = test system: UO-31 renal
EKVX NSCLC = test system: EKVX NSCLC
ACHN renal = test system: ACHN renal

CC1CCC(n2c3cnccc3c3cnc(Nc4ccc5c(n4)CCN(C(=O)CO)C5)nc32)CC1 (stereo not given)
active: GI50 (SW-620 colon) 278 nM | GI50 (NCI-H460 lung) 422 nM | GI50 (UO-31 renal) 263 nM
> 100000 nM: TGI (U251 CNS) | TGI (SNB-19 CNS) | TGI (SW-620 colon) | TGI (A549 NSCLC) | TGI (NCI-H460 lung) | TGI (CAKI-1 renal) | TGI (NCI-H522 lung) | TGI (UO-31 renal) | TGI (EKVX NSCLC) | TGI (ACHN renal)
inactive: GI50 (U251 CNS) 478 nM | GI50 (SNB-19 CNS) 845 nM | GI50 (A549 NSCLC) 882 nM | GI50 (CAKI-1 renal) 536 nM | GI50 (NCI-H522 lung) > 100000 nM | GI50 (EKVX NSCLC) > 100000 nM | GI50 (ACHN renal) 469 nM
